34 compounds from patent US9617258B2, “Pyrrolo[2,3-d]pyrimidinyl, pyrrolo[2,3-b]pyrazinyl and pyrrolo[2,3-d]pyridinyl acrylamides” (Pfizer Inc., priority 2013, dated 2017) can be followed below.

The structures appear in SMILES notation.

A short description of the data set: Stability of JAK3 covalent inhibitors in human whole blood.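 Note: parent compound remaining over incubation time quantified by LC-MS/MS as peak area ratio against an internal standard, using pooled K2-EDTA blood.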 The data set is classed as in vitro ADME. The following applies: both sexes, whole blood, 37° C., read-out: Human blood stability t1/2.
For `C=CC(=O)N1CCC(Nc2cnc3[nH]cc(C(=O)NC4CCCC4(F)F)c3n2)CC1` (stereo not shown) [Example 234, 2-[(1-acryloylpiperidin-4-yl)amino]-N-(2,2-difluorocyclopentyl)-5H-pyrrolo[2,3-b]pyrazine-7-carboxamide], the half-life at 1 μM was 4.93 h. Consider `C=CC(=O)N1CC[C@H](Nc2cnc3[nH]cc(C(=O)NC(C)C)c3n2)C1` [Example 171, 2-{[(3S)-1-acryloylpyrrolidin-3-yl]amino}-N-(propan-2-yl)-5H -pyrrolo[2,3-b]pyrazine-7-carboxamide], for which the half-life at 1 μM was > 6 h. On to `C=CC(=O)N1C[C@H](C#N)C[C@@H](Nc2ncnc3[nH]ccc23)C1` [Example 6, (3R,5R)-5-((7H-pyrrolo[2,3-d]pyrimidin-4-yl)amino)-1-acryloylpiperidine-3-carbonitrile], for which the half-life at 1 μM came to 4.22 h. Regarding `C=CC(=O)N1CCC(Nc2cnc3[nH]cc(C(=O)NC45CC(C4)C5)c3n2)CC1` [Example 281, 2-[(1-acryloylpiperidin-4-yl)amino]-N-(bicyclo[1.1.1]pent-1-yl)-5H-pyrrolo[2,3-b]pyrazine-7-carboxamide], the half-life at 1 μM turned out to be 5.77 h. As for `C=CC(=O)N1CCC(Nc2cnc3[nH]cc(C(=O)N[C@@H](C)COC)c3n2)CC1` [Example 277, 2-[(1-acryloylpiperidin-4-yl)amino]-N-[(2S)-1-methoxypropan-2-yl]-5H-pyrrolo[2,3-b]pyrazine-7-carboxamide], the half-life at 1 μM is > 6 h. `C=CC(=O)N1CCC(Nc2cnc3[nH]cc(C(=O)NC(C)(C)C)c3n2)C[C@@H]1C` (mixture of isomers) [Example 340]: the half-life at 1 μM is > 6 h. In the case of `C=CC(=O)N1CCC(Nc2cnc3[nH]cc(C(=O)NC4CCC4)c3n2)CC1` [Example 280, 2-[(1-acryloylpiperidin-4-yl)amino]-N-cyclobutyl-5H-pyrrolo[2,3-b]pyrazine-7-carboxamide], the half-life at 1 μM was > 6 h.

With `C=CC(=O)N1CCC(Nc2cnc3[nH]cc(C(=O)NCC4CC(F)(F)C4)c3n2)CC1` [Example 238, 2-[(1-acryloylpiperidin-4-yl)amino]-N-[(3,3-difluorocyclobutyl)methyl]-5H-pyrrolo[2,3-b]pyrazine-7-carboxamide], the half-life at 1 μM was 4.33 h.

In the case of `C=CC(=O)N1CCC(Nc2cnc3[nH]cc(C(=O)NCC4CCCC4)c3n2)CC1` [Example 270, 2-[(1-acryloylpiperidin-4-yl)amino]-N-(cyclopentylmethyl)-5H-pyrrolo[2,3-b]pyrazine-7-carboxamide], the half-life at 1 μM turned out to be 3.87 h.

Turning to `C=CC(=O)N1CCC(Nc2cnc3[nH]cc(C(=O)NCC(C)(C)C)c3n2)CC1` [Example 271, 2-[(1-acryloylpiperidin-4-yl)amino]-N-(2,2-dimethylpropyl)-5H-pyrrolo[2,3-b]pyrazine-7-carboxamide], the half-life at 1 μM turned out to be 2.28 h. Regarding `C=CC(=O)N1CCC(Nc2cnc3[nH]cc(C(=O)N[C@@H](C)CCC)c3n2)CC1` [Example 267, 2-[(1-acryloylpiperidin-4-yl)amino]-N-[(2S)-pentan-2-yl]-5H-pyrrolo[2,3-b]pyrazine-7-carboxamide], the half-life at 1 μM stood at 3.73 h. Turning to `C=CC(=O)N1CCC(Nc2cnc3[nH]cc(C(=O)NC4CCCCC4)c3n2)CC1` [Example 278, 2-[(1-acryloylpiperidin-4-yl)amino]-N-cyclohexyl-5H-pyrrolo[2,3-b]pyrazine-7-carboxamide], the half-life at 1 μM came to 3.93 h. The value for `C=CC(=O)N1C[C@@H](C)C[C@@H](Nc2ncnc3[nH]ccc23)C1` (racemic) [Example 22, rac-cis-1-((3R,5S)-3-((7H-Pyrrolo[2,3-d]pyrimidin-4-yl)amino)-5-methylpiperidin-1-yl)prop-2-en-1-one] was 5.78 h; that for `C=CC(=O)N1CCC[C@@H](Nc2ncnc3[nH]cc(CCOC)c23)C1` [Example 46, 1-[(3R)-3-{[5-(2-methoxyethyl)-7H-pyrrolo[2,3-d]pyrimidin-4-yl]amino}piperidin-1-yl]prop-2-en-1-one] was > 5.74 h; that for `C/C=C/C(=O)N1CCC[C@@H](Nc2ncnc3[nH]ccc23)C1` [Example 95, (2E)-1-[(3R)-3-(7H-pyrrolo[2,3-d]pyrimidin-4-ylamino)piperidin-1-yl]but-2-en-1-one] was > 6 h. As for `C#Cc1c[nH]c2ncnc(N3CC[C@H]4CCN(C(=O)C=C)C[C@H]43)c12` [Example 48, 1-[(3aS,7aS)-1-(5-ethynyl-7H-pyrrolo[2,3-d]pyrimidin-4-yl)octahydro-6H-pyrrolo[2,3-c]pyridin-6-yl]prop-2-en-1-one], the half-life at 1 μM was 2.5 h. Turning to `C=CC(=O)N1CC[C@H](C)[C@@H](Nc2ncnc3[nH]ccc23)C1` (racemic) [Example 50, 1-[(3R,4S)-4-methyl-3-(7H-pyrrolo[2,3-d]pyrimidin-4-ylamino)piperidin-1-yl]prop-2-en-1-one], the half-life at 1 μM was > 6 h. The value for `CN(C)C/C=C/C(=O)N1CC[C@@H]2CCN(c3ncnc4[nH]ccc34)[C@@H]2C1` [Example 82, (2E)-4-(dimethylamino)-1-[(3aS,7aS)-1-(7H-pyrrolo[2,3-d]pyrimidin-4-yl)octahydro-6H-pyrrolo[2,3-c]pyridin-6-yl]but-2-en-1-one] was > 6 h. The same measure for `C=CC(=O)N1CCC[C@@H](Nc2nc(Nc3cccnc3)nc3[nH]ccc23)C1` [Example 63, 1-[(3R)-3-{[2-(Pyridin-3-ylamino)-7H-pyrrolo[2,3-d]pyrimidin-4-yl]amino}piperidin-1-yl]prop-2-en-1-one]: > 6 h; for `C=CC(=O)N1C[C@@H](O)C[C@@H](Nc2ncnc3[nH]cc(Cl)c23)C1` [Example 162, 1-{(3R,5S)-3-[(5-Chloro-7H-pyrrolo[2,3-d]pyrimidin-4-yl)amino]-5-hydroxypiperidin-1-yl}prop-2-en-1-one]: > 6 h; for `C=CC(=O)N1C[C@@H]2C(Nc3cnc4[nH]cc(C(=O)NC(C)C)c4n3)[C@@H]2C1` (stereo partly drawn) [Example 189, 2-{[(1R,5S,6s)-3-acryloyl-3-azabicyclo[3.1.0]hex-6-yl]amino}-N-(propan-2-yl)-5H-pyrrolo[2,3-b]pyrazine-7-carboxamide]: > 6 h.

As to `C=CC(=O)N1CCC(C)(Nc2cnc3[nH]cc(C(=O)NC(C)C)c3n2)CC1` [Example 318, 2-[(1-acryloyl-4-methylpiperidin-4-yl)amino]-N-(propan-2-yl)-5H-pyrrolo[2,3-b]pyrazine-7-carboxamide], the half-life at 1 μM amounted to 5.87 h. The same measure for `C=CC(=O)N1CC[C@@H](CNc2cnc3[nH]cc(C(=O)NC(C)C)c3n2)C1` [Example 191, 2-({[(3S)-1-acryloylpyrrolidin-3-yl]methyl}amino)-(N-propan-2-yl)-5H-pyrrolo[2,3-b]pyrazine-7-carboxamide]: > 6 h; for `C=C(C)C(=O)N1CC[C@@H]2CCN(c3ncnc4[nH]ccc34)[C@@H]2C1` [Example 85, 2-methyl-1-[(3aS,7aS)-1-(7H-pyrrolo[2,3-d]pyrimidin-4-yl)octahydro-6H-pyrrolo[2,3-c]pyridin-6-yl]prop-2-en-1-one]: > 6 h. For the compound `C=CC(=O)N1CC[C@@H](Nc2cnc3[nH]cc(C(=O)NC(C)C)c3n2)[C@H](OC)C1` [Example 305, 2-{[(3R,4R)-1-acryloyl-3-methoxypiperidin-4-yl]amino}-N-(propan-2-yl)-5H-pyrrolo[2,3-b]pyrazine-7-carboxamide], the half-life at 1 μM amounted to 5.95 h. The same measure for `COCCc1c[nH]c2ncnc(N[C@@H]3CCCN(C(=O)/C=C/CN(C)C)C3)c12` [Example 108, (2E)-4-(dimethylamino)-1-[(3R)-3-{[5-(2-methoxyethyl)-7H-pyrrolo[2,3-d]pyrimidin-4-yl]amino}pipendin-1-yl]but-2-en-1-one]: > 6 h. The same measure for `C=CC(=O)N1CCC[C@@H](Nc2ncnc3[nH]cc(-c4cnn(C)c4)c23)C1` [Example 28, 1-[(3R)-3-{[5-(1-methyl-1H-pyrazol-4-yl)-7H-pyrrolo[2,3-d]pyrimidin-4-yl]amino}piperidin-1-yl]prop-2-en-1-one]: > 6 h; for `C=CC(=O)N1CCC(Nc2cnc3[nH]cc(C(=O)N[C@@H]4CCC[C@H]4F)c3n2)CC1` [Example 237, 2-[(1-acryloylpiperidin-4-yl)amino]-N-[(1R,2R)-2-fluorocyclopentyl]-5H-pyrrolo[2,3-b]pyrazine-7-carboxamide]: 4.05 h; for `C=CC(=O)N1CCC(Nc2cnc3[nH]cc(C(=O)N[C@H](C)COC)c3n2)CC1` [Example 268, 2-[(1-acryloylpiperidin-4-yl)amino]-N-[(2R)-1-methoxypropan-2-yl]-5H-pyrrolo[2,3-b]pyrazine-7-carboxamide]: 4.8 h. For the compound `C=CC(=O)N1CCC(Nc2cnc3[nH]cc(C(=O)NCC(F)(F)F)c3n2)CC1` [Example 273, 2-[(1-acryloylpiperidin-4-yl)amino]-N-(2,2,2-trifluoroethyl)-5H-pyrrolo[2,3-b]pyrazine-7-carboxamide], the half-life at 1 μM turned out to be 3.63 h. Take `C=CC(=O)N1CCC(Nc2cnc3[nH]cc(C(=O)N[C@H](C)CC)c3n2)CC1` [Example 289, 2-[(1-acryloylpiperidin-4-yl)amino]-N-[(2R)-butan-2-yl]-5H-pyrrolo[2,3-b]pyrazine-7-carboxamide]: the half-life at 1 μM was > 6 h. On to `C=CC(=O)N1CCC(Oc2cnc3[nH]cc(-c4ccnc(C)c4)c3n2)CC1` [Example 220, 1-(4-{[7-(2-methylpyridin-4-yl)-5H-pyrrolo[2,3-b]pyrazin-2-yl]oxy}piperidin-1-yl)prop-2-en-1-one], for which the half-life at 1 μM is > 6 h.

For the compound `C=CC(=O)N1CCC(Oc2cnc3[nH]cc(-c4cnn(C)c4)c3n2)CC1` [Example 218, 1-(4-{[7-(1-methyl-1H-pyrazol-4-yl)-5H-pyrrolo[2,3-b]pyrazin-2-yl]oxy}piperidin-1-yl)prop-2-en-1-one], the half-life at 1 μM is > 6 h. Take `C=CC(=O)N1CCC(Nc2cnc3[nH]cc(C(=O)N[C@@H]4CCC[C@@H]4F)c3n2)CC1` [Example 251, 2-[(1-acryloylpiperidin-4-yl)amino]-N-[(1R,2S)-2-fluorocyclopentyl]-5H-pyrrolo[2,3-b]pyrazine-7-carboxamide]: the half-life at 1 μM was determined as 3.35 h.
